# How the values were obtained:
# [1] = tested on: human RBCs; test: Labeling of human RBCs with lipids, flow cytometry; assay type: cell-based; details: lipids at 25 μM, 1 h; for MFI of labeled human RBCs, fold higher than the rest of the lipids / percentage of labeled human RBCs (in words): flow cytometry
# Source text: We acquired commercially available dialkyl indocarbocyanine lipids DiI-C18, DiI-C18:2, DiI-C16, DiI-C12 and synthesized additional headgroup derivatives of DiI-C18: DiI-amine, DiI-PEG5000, and DiI-PEG3400-methyltetrazine (Mtz). In addition, we prepared diacyl glycerol derivatives of Cy3: Cy3-C18, Cy3-C18:1, Cy3-C16, Cy3-C14, Cy3-C12, phospholipid derivative Cy3-distearoyl phosphatidylethanolamine (Cy3-DSPE), and Cy3-cholesterol. This library covers different lipid lengths, lipid types, and also headgroup-tail linkages. In addition, the library includes a limited number of headgroup derivatives relevant to drug delivery. Thus, PEGylated lipids have importance for erythrocyte PEGylation for blood camouflaging. Mtz is a click chemistry group that enables versatile modifications with biomolecules,[13] but also serves as a mimic of a small molecule payload (Mw 230 Da). To determine the labeling efficiency, we used fresh human RBCs from two healthy donors. RBCs were incubated with lipids at 25 μM for 1 h and washed and analyzed with flow cytometry for the percentage of labeled cells and mean fluorescence intensity (MFI). […] Select lipids were then used to label mouse RBCs. The data in Figure 2C,D show generally higher mouse RBC labeling efficiency (MFI and percent RBCs) than human RBCs. […] Finally, we checked the linearity of the Cy3 group signal when incorporated in RBCs.
# Fresh human RBCs were obtained from discarded leukodepletion filters after processing sodium citrate anticoagulated donor blood at the Children’s Hospital Colorado Blood Donation Center. Institutional review board approval was not required for discarded material and anonymous samples. RBCs were eluted from leukodepletion filters by applying ACD buffer in the direction of the flow and were used within 2 h after blood collection. Sodium EDTA-anticoagulated mouse blood was collected from female or male BALB/c and NSG mice (8–10 weeks of age) via cardiac puncture, according to the animal protocol approved by the University of Colorado IACUC). Human RBCs were washed in ACD buffer and mouse RBC were washed in 1% BSA/PBS at room temperature at 3,000 g, total 3 times. Erythrocyte suspension (≈10^10/mL) was incubated with 25 μM lipids in ACD buffer (human RBCs) or 1% BSA/PBS (mouse RBCs) at 37 °C for 1 h and washed three times in ACD buffer or 1% BSA/PBS as described above. Labeling efficiency were determined by Guava easyCyte HT flow cytometer (Luminex Corp, Seattle, WA) as described later.
# [2] = In vivo circulation of labeled RBCs and lipid retention, flow cytometry, BALB/c mice; details: for half-life: both sexes, mouse, whole blood (RBCs), iv, mono- or biexponential decay, summary value, read-out: MFI half life, estimated (extrapolated) terminal (converted)
# Protocol: Next, we investigated in vivo retention and longevity of modified RBCs. We used the lipids with the highest labeling efficiency (Figure 2C,D) for in vivo studies: DiI-C18, DiI-C18:2, DiI-C12, Cy3-C12, DiI-PEG3400Mtz, Cy3-DSPE, and Cy3-cholesterol. Labeled RBCs were injected intravenously in BALB/c mice and the circulating levels (percent positive RBCs) and the stability of the lipid (MFI of the labeled population) were analyzed by flow cytometry (Figure 3A). Representative dot plots for DiI-C18 and DiI-C18:2 (Figure 3B) show a distinct population of labeled RBCs at both 1 min (between 9% and 13% of total RBCs) and 3 weeks postinjection. We found differences between lipids in terms of both percent RBC and percent MFI (Figure 3C,D). […] DiI-C18 RBCs had ≈40 days circulation span and only about 33% decrease in MFI at Day 20. […] Cy3-cholesterol RBCs had ≈30 days circulation span, but MFI dropped below 35% at Day 22.
# The University of Colorado Institutional Animal Care and Use Committee (IACUC) approved animal experiments (protocol 103 913(11)1D). Mice were treated according to regulations provided by the Office of Laboratory Animal Resources at the University of Colorado. BALB/c and NOD/LtSz-SCID IL2Rγc null (NSG) mice were bred in-house. Mice of 8–10 weeks age (males and females) were used for experiments. Mice were injected intravenously with ≈10^9 RBCs (each strain was injected with RBCs derived from the same strain). At different time intervals, ≈20 μL of blood were obtained with heparinated haematocrit capillary (ThermoFisher) via periorbital plexus. RBCs were resuspended at ≈0.5 million mL^−1 in 1%BSA/PBS and analyzed by Guava easyCyte HT flow cytometer (20 000 RBCs were counted after gating out platelets and leukocytes). The percentage of positive RBCs and mean fluorescence intensity (MFI) of labeled RBCs (if more than 1% of total RBCs) was determined using FlowJo software v.10 (BD Life Sciences, Ashland, OR). For pharmacokinetic analysis, the flow data were normalized to 100% injected dose (MFI and percent labeled RBCs at 1 min) and fit into mono or biexponential decay using the pharmacokinetic modeling software Boomer.[21]
# [3] = Lipid stability in RBCs in mouse serum in vitro; assay type: in vitro ADME, mouse (BALB/c serum); details: 3 h; for loss in MFI of labeled RBCs: 37 °C
# Protocol: The nature of lipid linker affects in vivo retention. […] To compare the stability of different lipids in vitro, we measured the fluorescence of labeled RBCs after incubation in mouse serum for 3 h.
# Mouse RBC labeled with lipids were incubated in mouse serum at 37 °C for up to 3 h. Intact RBCs were removed by centrifugation at 3000 g for 10 min at room temperature. RBCs were washed three times in 1% BSA/PBS to remove the remaining serum, and the labeling (MFI) was determined by flow cytometry as described above. The supernatant was analyzed for fluoresce released from RBC by dotting 2 μL on 0.45 μm nitrocellulose membrane and scanning with a Bio-Rad gel imager for Cy3 fluorescence at 540 nm excitation/560 nm emission. For TLC, 10 parts of methanol were added to 1 part of serum, and the tubes were centrifuged at 500 g for 10 min to pellet the protein fraction. The methanol phase was carefully collected, applied on TLC Silica Gel 60 F254 (EMD Millipore), and separated on the mobile phase chloroform: methanol (9:1) with 0.1% trifluoroacetic acid. The plates were scanned with a Bio-Rad gel imager for Cy3 fluorescence.
# [4] = tested on: mouse RBCs; test: Labeling of mouse RBCs with lipids, flow cytometry; assay type: cell-based, mouse (BALB/c); details: lipids at 25 μM, 1 h
# Source text: We acquired commercially available dialkyl indocarbocyanine lipids DiI-C18, DiI-C18:2, DiI-C16, DiI-C12 and synthesized additional headgroup derivatives of DiI-C18: DiI-amine, DiI-PEG5000, and DiI-PEG3400-methyltetrazine (Mtz). In addition, we prepared diacyl glycerol derivatives of Cy3: Cy3-C18, Cy3-C18:1, Cy3-C16, Cy3-C14, Cy3-C12, phospholipid derivative Cy3-distearoyl phosphatidylethanolamine (Cy3-DSPE), and Cy3-cholesterol. This library covers different lipid lengths, lipid types, and also headgroup-tail linkages. In addition, the library includes a limited number of headgroup derivatives relevant to drug delivery. Thus, PEGylated lipids have importance for erythrocyte PEGylation for blood camouflaging. Mtz is a click chemistry group that enables versatile modifications with biomolecules,[13] but also serves as a mimic of a small molecule payload (Mw 230 Da). […] RBCs were incubated with lipids at 25 μM for 1 h and washed and analyzed with flow cytometry for the percentage of labeled cells and mean fluorescence intensity (MFI). […]
# Fresh human RBCs were obtained from discarded leukodepletion filters after processing sodium citrate anticoagulated donor blood at the Children’s Hospital Colorado Blood Donation Center. […] Labeling efficiency were determined by Guava easyCyte HT flow cytometer (Luminex Corp, Seattle, WA) as described later.
# [5] = parameters: method as in PMID 33532572; details: 48 h postinjection in mice ref 8a; cited from earlier work
# [6] = tested on: mouse peritoneal macrophages; test: Uptake of labeled RBCs by peritoneal macrophages; assay type: cell-based; details: 24 h incubation, fluorescent microscopy
# Protocol: Fresh nonactivated macrophages were isolated and seeded in culture for 24 h in a 96-well culture-treated plate (Corning Inc.) as described.[19] On the next day, labeled RBCs were added (≈1 × 10^5 RBC/well) in triplicates, and macrophages were incubated for 24 h. In some experiments, PMF were prelabeled with 10 μM DiO for 2 h before addition of RBCs. After incubation, macrophages were washed with PBS 4 times to remove nonbound RBCs, fixed with 4% formalin, and stained with nuclear stain Hoechst. Cells were imaged under 100× magnification with Zeiss Axio Observer 5 epifluorescent microscope, and ≈7 microscopic fields were acquired. To verify RBC localization outside the cells, a Nikon Eclipse AR1HD inverted confocal microscope with 405, 488, 561, and 640 nm excitation lasers and corresponding emission filters was used. The percentage of DiI+ cells and rosette+ cells per field was determined manually and plotted with Prism.
# [7] = Organ biodistribution of labeled RBCs (NIR imaging, confocal microscopy of liver and spleen); details: Day 40 (DiI-C18 RBCs), Day 29 (DiI-PEG3400Mtz RBCs)
# Protocol: To determine the location of the label in the clearance organs, we imaged freshly excised livers and spleens of BALB/c mice injected with DiI-C18 RBCs and DiI-PEG3400Mtz RBCs (Day 40 and Day 29, respectively) with confocal microscope.
# When labeled RBCs reached <1% of total RBCs (usually 10% or less of the injected dose), mice were injected with FITC-lectin and Hoechst and sacrificed with carbon dioxide (CO2) followed by cardiac perfusion. Fresh livers and spleens were placed on glass slides and imaged with Nikon Eclipse AR1HD inverted confocal microscope with Plan Apo 10 objective as described.[18]
# [8] = parameters: species or system BALB/c mice; details: mouse
# Protocol: Figure 6. Biodistribution and immune recognition of RBCs. A) RBCs labeled with DiR were injected in BALB/c mice and blood fluorescence was monitored with NIR scanner Li-COR Odyssey. […] D) Confocal microscopy images of fresh livers and spleens of mice injected with DiI-C18 and DiI-PEG3400Mtz (after in vivo labeling of blood vessels and nuclei with FITC-lectin and Hoechst). The lipid accumulates in extrasinusoidal cells in the spleen and predominantly in sinusoidal cells in the liver (i.e., endothelium and Kupffer cells). […] E) RBCs were incubated with fresh peritoneal macrophages for 24 h. […] F) Quantification of percent cells (per field) that contain intracellular DiI. G) Quantification of percent cells (per field) that contain DiI+ rosettes. P-value: ****0.0001; ***<0.001 2-sided t-test, alpha 0.05.
SMILES,half-life ([2]; BALB/c),loss in MFI of labeled RBCs [3],"MFI of labeled human RBCs, fold higher than the rest of the lipids [1]",percentage of labeled human RBCs (in words) [1],"circulation and retention of labeled RBCs (in words) ([2]; i.v., BALB/c)",further results
CCCCCCCCCCCCCCCCN1/C(=C/C=C/C2=[N+](CCCCCCCCCCCCCCCC)c3ccccc3C2(C)C)C(C)(C)c2ccccc21 [DiI-C16],,,2–3 fold,,,
CCCCCCCCCCCCCCCCCCN1/C(=C/C=C/C2=[N+](CCCCCCCCCCCCCCCCCC)c3ccc(CN)cc3C2(C)C)C(C)(C)c2ccccc21 [DiI-amine],,,,,,"labeling efficiency of human RBCs, fold lower than the parent DiI-C18 [1]: ≈ 4 fold"
CCCCCCCCCCCCCCCCCCN1/C(=C/C=C/C2=[N+](CCCCCCCCCCCCCCCCCC)c3ccccc3C2(C)C)C(C)(C)c2ccccc21 [DiI-C18],> 1920 h,less than 15%,2–3 fold,,longest circulation and retention,"decrease in MFI of labeled RBCs ([2]; Day 20, 1 min postinjection = 100%): about 33%; lipid present in the RBC membrane [5]: up to 90%; human RBC labeling efficiency [1]: 28%; macrophages with intracellular Cy3 fluorescence [6]: mostly intracellular uptake; location of Cy3 signal in liver and spleen, confocal microscopy [7]: predominant accumulation of Cy3 signal in extrasinusoidal spleen cells and some accumulation in the liver sinusoids"
"CCCCCCCCCCCCCCCCCCN1C(=CC=CC=CC=CC2=[N+](CCCCCCCCCCCCCCCCCC)c3ccccc3C2(C)C)C(C)(C)c2ccccc21.[I-] [DiR-C18, 1,1′-Dioctadecyl-3,3,3′,3′-Tetramethylindotricarbocyanine Iodide]",,,,,,in vivo life span of labeled RBCs [8]: over 30 days; terminal half life of labeled RBCs ([8]; in vivo): 175 h
CCCCCCCCCCCCCC(=O)OCC(CNC(=O)CCCCC[N+]1=C(/C=C/C=C2/N(C)c3ccccc3C2(C)C)C(C)(C)c2ccccc21)OC(=O)CCCCCCCCCCCCC (stereo not drawn) [Cy3-C14],,,,highest percentage of labeled human RBCs,,
CC(C)CCCC(C)C1CCC2C3CC=C4CC(OC(=O)CCCCC[N+]5=C(C=CC=C6N(C)c7ccccc7C6(C)C)C(C)(C)c6ccccc65)CCC4(C)C3CCC12C (stereo not drawn) [Cy3-cholesterol],300 h,less than 15%,,,longest circulation and retention,"MFI of labeled RBCs, percent of initial ([2]; Day 22, 1 min postinjection = 100%): below 35%"

# The next lines start with results.
half-life ([2]; BALB/c),loss in MFI of labeled RBCs [3],SMILES,"MFI of labeled human RBCs, fold higher than the rest of the lipids [1]",percentage of labeled human RBCs (in words) [1],"circulation and retention of labeled RBCs (in words) ([2]; i.v., BALB/c)",further results
72 h,less than 15%,CCCCCCCCCCCCN1/C(=C/C=C/C2=[N+](CCCCCCCCCCCC)c3ccccc3C2(C)C)C(C)(C)c2ccccc21 [DiI-C12],2–3 fold,highest percentage of labeled human RBCs,,"decrease in MFI of labeled RBCs (in words) ([2]; i.v., BALB/c): much faster decrease in MFI than DiI-C18 and Cy3-cholesterol; mouse RBC labeling efficiency (in words) [4]: highest efficiency; human RBC labeling efficiency (in words) [1]: highest efficiency"
,over 60%,"CCCCCCCCCCCCCCCCCC(=O)OC[C@H](COP(=O)(O)OCCNC(=O)CCCCC[N+]1=C(/C=C/C=C2/N(C)c3ccccc3C2(C)C)C(C)(C)c2ccccc21)OC(=O)CCCCCCCCCCCCCCCCC [Cy3-DSPE, Cy3-distearoyl phosphatidylethanolamine]",2–3 fold,highest percentage of labeled human RBCs,disappeared within a few days postinjection,"TLC analysis of serum supernatant [3]: presence of intact Cy3-DSPE along with some degradation products; fluorescence released in serum from labeled RBCs, relative to DiI-C18 RBCs [3]: five times more fluorescence released in serum; human RBC labeling efficiency [1]: 100%"
,less than 15%,CCCCCCCCCCCC(=O)OCC(CNC(=O)CCCCC[N+]1=C(/C=C/C=C2/N(C)c3ccccc3C2(C)C)C(C)(C)c2ccccc21)OC(=O)CCCCCCCCCCC (stereo not drawn) [Cy3-C12],,highest percentage of labeled human RBCs,disappeared within a few days postinjection,"drop in MFI of labeled RBCs ([2]; Day 3, 1 min postinjection = 100%): 85%"

# — paper PMC9797212, “Surface Modification of Erythrocytes with Lipid Anchors: Structure–Activity Relationship for Optimal Membrane Incorporation, in vivo Retention, and Immunocompatibility” (Advanced nanobiomed research, 2022)
